Results taken from publication PMC8241142 (Drug Delivery, 2017).

What was measured:
[1] = In vitro release of NMS samples (USP II paddle method, PBS pH 7.8); format: physicochemical; settings: PBS pH 7.8, 37 °C
Method: (§1) Dissolution studies of samples were carried out according to a USP II paddle method at 37 °C with a stirrer rotation speed of 50 rpm in a dissolution apparatus (ZRD6-B, Shanghai Huanghai Medicament Test Instrument Factory, Shanghai, China). […] At predetermined time intervals, 5 ml samples were taken out and replaced by fresh medium immediately. Then, samples were passed through a 0.22 μm membrane filter and were transferred to UV/Vis analysis at the wavelength of 240 nm.
Samples containing 5 mg NMS were put into 250 ml phosphate buffer solutions (PBS, pH 7.8) at 37 °C.

[2] = tested on: mouse ear swelling caused by xylene; assay: Mouse ear swelling test (MEST); format: in vivo, Kunming mice; settings: intragastric, 0.6 mg NMS, 50 min
Method: The mouse ear swelling test was developed to further evaluate the swelling inhibition potential of NMS/CMS. In detail, 16 male Kunming mice weighing 18–22 g were randomly divided into four groups (n = 4): NS group (negative control group), NMS group (positive control group), NMS/CMS group ([…]) and NMS/MCM41 group ([…]). Samples containing 0.6 mg NMS were suspended in normal saline and imposed to mice in all groups by intragastric administration. Mice in NS group were exposed to normal saline only. At 30 min after administration, 0.1 ml xylene was applied on each side of the left ear of mice, and the right ear regarded as a reference was left untreated. After 50 min, mice were executed, both ears were removed, and tissues with diameter of 0.6 cm were cut off by hole punch. The weight of the tissues cut from left and right ears was measured by electronic scale. The repression rate and the degree of ear swelling were, respectively, expressed as: (3) Repression rate (%)=(wL-wR)negative control-(wL-wR)test/(wL-wR)negative control-(wL-wR)positive control×100 (4) Swelling rate (%)=wL-wR/wR×100 where w L is the weight of tissue cut from the left ear and w R is the weight of tissue cut from the right ear of the same mice.

[3] = In vitro release of DZP samples (USP II paddle method); format: physicochemical; settings: deionized water, 37 °C, 50 rpm
Method: as §1

CS(=O)(=O)Nc1ccc([N+](=O)[O-])cc1Oc1ccccc1 [NMS, Nimesulide]
accumulative release percentage within 24 h [1]: 93.1% | ear swelling rate [2]: 32.4%

CN1C(=O)CN=C(c2ccccc2)c2cc(Cl)ccc21 [DZP, Diazepam]
cumulative release percentage within 24 h [3]: 66.75%
